Experiments:
Assay type in all cases: binding
[1] = test system: synthetic vesicles of sizes 100 nm and 400 nm; experiment: Cosedimentation assay of MARCKS-ED with synthetic vesicles
Source text: (§1) In another exemplary method, lipid vesicles were employed to the curvature-sensing behavior of the MARCKS derived peptides with various sizes and lipid components. The membrane curvature is defined as the reciprocal of the diameter of a particular particle, e.g., smaller-sized vesicles present highly curved membrane bilayers. A series of lipid models were made to represent various lipid components that closely resemble the lipid composition of biological membranes. […] Dynamic light scattering (DLS) and negative-stain transmission electron microscopy (TEM) were performed to confirm the different vesicle sizes following the pressure-controlled extrusion process through different membrane diameter pores. Commercial polystyrene beads were used as the calibration standard for the vesicle size validation experiments. Furthermore, a time-course experiment was carried out to confirm the stability of the vesicles up to 16 hours. Three different membrane diameters were extruded for the following biophysical characterizations: 30 nm, 100 nm, 400 nm, reflecting different membrane curvatures.
In another exemplary method, a cosedimentation assay was performed to test the size differentiation behavior of MARCKS-ED. Two vesicle pore sizes, 100 and 400 nm, were used in this experiment because vesicles smaller than 100 nm were difficult to pellet even at high centrifugation speed. MARCKS-ED (10 μM) was incubated with 600 μM synthetic vesicles of sizes 100 nm and 400 nm. The positive control was the intact C2A-C2B cytoplasmic domains (C2AB) of rat Synaptotamin-1 (a.a. 96-421). C2AB (1.5 μM) was treated with CaCl2 (1 mM) and incubated with 300 μM synthetic vesicles of sizes 100 nm and 400 nm. C2AB treated with vesicles was incubated at room temperature for 30 minutes, followed by centrifugation of 65,000 rpm for 45 minutes at 20° C. MARCKS-ED treated with vesicles was incubated at room temperature for 2 hours, followed by 75,000 rpm for 45 minutes at 20° C. […]

isolated microvesicles = experiment: Fluorescence enhancement with isolated rat microvesicles
Description: In another exemplary method, having established the simultaneous curvature- and PS-sensing by MARCKS-ED in synthetic liposomes, MARCKS-ED was tested on detection of highly curved, PS-enriched particles in a complex biological system. Microvesicles (ø=0.03-1 μm) are highly curved lipid vesicles that shed into body fluids (e.g., blood, urine, ascitic fluid). These vesicles are released by cancerous cells in which lipid asymmetry is de-regulated, contributing to externalization and enrichment of PS on their outer leaflet. The microvesicle detecting ability of MARCKS-ED was investigated using plasma samples from a stressed rat model. […]
Microvesicles in these samples were characterized by TEM imaging, and ELISA of detection of the signature CD63 protein and the membrane transport protein Rab5b exposed on the surface. Particles expressing both proteins were captured by antibodies and quantified in a colorimetric endpoint assay.
These isolated microvesicles were measured by nanoparticle tracking analysis (NTA) to confirm their average size (ø=56 nm). Tracking analyses were performed using the NanoSight LM10-HS instrument (Amesbury, UK) equipped with a 532 nm laser and observed at scatter and fluorescence modes (filter=550 nm). […]
Monitored at λex=295 nm, Annexin-V (0.32 μM) was treated with CaCl2 (3 mM) in TES buffer and with 500 μM lipid vesicles of varying PS content. […]

synthetic lipid vesicles = experiment: Fluorescence enhancement assay of NBD-labeled MARCKS peptides with synthetic vesicles
Source text: as §1
Next, a fluorescence enhancement assay was conducted to further quantify the curvature- and PS-sensing behavior of MARCKS-ED. Appropriate controls were performed to confirm that the fluorophore alone had no effect on the observed fluorescence enhancement (data not shown). FIG. 4 represents histogram data of fluorescence enhancement assay with and fluorescence anisotropy titration of the NBD labeled MARCKS derived peptides. Upon binding to lipid vesicles, the fluorescence intensity of NBD-MARCKS-ED increased due to vesicle binding and changes in the hydrophobic environment surrounding the fluorophore, concurring with a slight blue shift of the maximum emission wavelength. The emission spectra of all NBD-labeled peptides were recorded using a Fluorolog-3 fluorometer with λex=480 nm. The peptides and protein were tested at a concentration of 500 nM in PBS (pH 7.40) treated with 500 μM synthetic vesicles of different vesicles sizes. […] The positive control C2AB (200 nM) from the rat Synaptotagmin-1 (Syn-1) protein (G374, residues 96-421) was treated with CaCl2 (2.5 mM) and observed with λex of 275 nm and emission range of 300-450 nm. The untreated peptide and Ca^2+-C2AB samples were corrected by the PBS (pH=7.40) blank solution for the peptides and PBS with Ca^2+ for the Ca^2+-C2AB sample. All samples were prepared and incubated overnight in 4° C.
FIG. 4A illustrates a histogram plot of fluorescence intensity of MARCKS-ED treated with lipid vesicles of various sizes. […] Last, the fluorescence intensity differences were less significant with vesicles containing no PS. […]

KKKKKRFSFKKSFKLSGFSFKKNKK [MARCKS-ED]
pull-down by lipid vesicles without PS [1]: less MARCKS-ED was pulled down | pull-down by 100 nm vs 400 nm PS-containing vesicles ([1]; gel electrophoresis of supernatant and pellet): binds more tightly to highly curved vesicles containing PS | binding to isolated microvesicles (fluorescence enhancement) (isolated microvesicles): demonstrated to bind to these biological particles | reversal of binding by CaM (synthetic lipid vesicles; addition of CaM): could be partially reversed | fluorescence intensity increase, 30 nm vs 400 nm vesicles (synthetic lipid vesicles; peptide 500 nM, 500 μM vesicles containing PS): approximately 1.5 fold
